Our source for the Activity values is ChEMBL document CHEMBL4414642, “Buxaustroines A-N, a Series of 17(13→18)abeo-Cycloartenol Triterpenoidal Alkaloids from Buxus austro-yunnanensis and Their Cardioprotective Activities” (J Nat Prod, 2019).

Active and inactive are the calls of the source. The calls are words filed in the database; no cut-off is given here.

Data set [1] relates to H9c2. In words: Cytotoxicity against rat H9c2 cells at 1 uM after 48 hrs by CCK-8 assay. In kind it is cell-based. The note with it: h9c2, 48 h.
Data set [2] concerns H9c2. Nature of the data set: Cardioprotective activity against rat H9c2 cells assessed as inhibition of doxorubicin-induced reduction in cell viability at 0.5 uM preincubated for 30 mins followed by doxorubicin treatment and measured after 48 hrs by CCK8 assay. In kind it is functional, cell-based. For orientation: Tetrazolium dyes change colour on reduction, which living cells bring about.

Data set [3] relates to H9c2. In words: Cardioprotective activity against rat H9c2 cells assessed as inhibition of doxorubicin-induced reduction in cell viability at 1 uM preincubated for 30 mins followed by doxorubicin treatment and measured after 48 hrs by CCK8 assay. In kind it is functional, cell-based.

Take `C/C=C1/C(=O)C[C@@]2(C)[C@@H]3CC[C@H]4C(C)(C)[C@@H](NC)CC[C@]45C[C@@]35CC[C@]12C`: in data set [1], the Activity result is given as “Non-Toxic”. Moreover, in data set [2], the result was Active.
For `CCC1=CC2=CC[C@@]34C[C@]35CC[C@H](NC)C(C)(C)[C@@H]5CC[C@H]4[C@]2(C)CC1=O`, in that order: “Non-Toxic” and “Active”.
Consider `C=C1[C@@H](NC)CC[C@@]23C[C@]24CC[C@@H]2C=C(CC)C(=O)C[C@@]2(C)[C@@H]4CC[C@@H]13`, for which the Activity result in data set [1] is “Non-Toxic”. Also, the outcome in data set [2] was Active.
For `C=C1[C@@H](N(C)C)CC[C@@]23C[C@]24CC[C@]2(O)C[C@H](CC)C(=O)C[C@@]2(C)[C@@H]4CC[C@@H]13`, the Activity entry in data set [1] is “Non-Toxic”. The result in data set [2] and in data set [3] was inactive.
On to `C=C1[C@@H](N(C)C)CC[C@@]23C[C@]24CC[C@]2(O)C=C(CC)C(=O)C[C@@]2(C)[C@@H]4CC[C@@H]13`, for which, in data set [1], the Activity entry is given as “Non-Toxic”. Further, the outcome in data set [2] and in data set [3] was inactive.
As to `CN[C@@H](C)[C@H]1[C@H](O)C[C@@]2(C)[C@@H]3CC[C@H]4C(C)(C)[C@@H](NC)CC[C@]45C[C@@]35CC[C@]12C`, the Activity entry in data set [1] is on record as “Non-Toxic”. Further, in data set [3], the outcome was Active.
For `C=C1[C@@H](NC)CC[C@@]23C[C@]24CC[C@]2(O)C[C@H](CC)C(=O)C[C@@]2(C)[C@@H]4CC[C@@H]13`, in data set [1], the Activity result is on record as “Non-Toxic”. Moreover, the result in data set [2] and in data set [3] was inactive.
Take `CC[C@H]1C[C@@]2(O)CC[C@@]34C[C@]35CC[C@H](NC)C(C)(C)[C@@H]5CC[C@H]4[C@]2(C)CC1=O`: the Activity entry in data set [1] is “Non-Toxic”. For the same compound, the result in data set [2] and in data set [3] was inactive.
As to `C=C1[C@@H](NC)CC[C@@]23C[C@]24CCC2=C[C@](O)(CC)C(=O)C[C@@]2(C)[C@@H]4CC[C@@H]13`, the Activity entry in data set [1] was “Non-Toxic”.
For the compound `CCC1=C[C@H]2CC[C@@]34C[C@]35CC[C@H](NC)[C@@H](C)[C@@H]5CC[C@H]4[C@]2(C)CC1=O`, the Activity result in data set [1] is recorded as “Non-Toxic”. For the same compound, in data set [2], the outcome was Active.
Regarding `C=C1[C@@H](NC)CC[C@@]23C[C@]24CC=C2C=C(CC)C(=O)C[C@@]2(C)[C@@H]4CC[C@@H]13`, in data set [1], the Activity entry was “Non-Toxic”. The result in data set [2] was Active.
With `CCC1=C[C@H]2CC[C@@]34C[C@]35CC[C@H](NC)C(C)(C)[C@@H]5C[C@H](OC(C)=O)[C@H]4[C@]2(C)CC1=O`, the Activity entry in data set [1] was “Non-Toxic”.
Turning to `CCC1=C[C@H]2CC[C@@]34C[C@]35CC[C@H](NC)C(C)(C)[C@@H]5C=C[C@H]4[C@]2(C)CC1=O`, the Activity result in data set [1] is reported as “Non-Toxic”. Also, the outcome in data set [2] was Active.
On to `CCC1=C[C@@]2(O)CC[C@@]34C[C@]35CC[C@H](NC)C(C)(C)[C@@H]5C=C[C@H]4[C@]2(C)CC1=O`, for which the Activity entry in data set [1] was “Non-Toxic”. Further, the result in data set [2] and in data set [3] was inactive.
`CCC1=C[C@H]2CC[C@@]34C[C@]35CC[C@H](N(C)C)[C@@H](C)[C@@H]5CC[C@H]4[C@]2(C)CC1=O`: the Activity result in data set [1] is listed as “Non-Toxic”. The result in data set [2] and in data set [3] was Active.
On to `CC[C@H]1C=C2CC[C@@]34C[C@]35CC[C@H](NC)C(C)(C)[C@@H]5C=C[C@H]4[C@]2(C)C[C@@H]1O`, for which, in data set [1], the Activity result was “Non-Toxic”.
